Measured values taken from ChEMBL document CHEMBL5512605, “Targeted regulated cell death with small molecule compounds in colorectal cancer: Current perspectives of targeted therapy and molecular mechanisms” (Eur J Med Chem, 2024).
Each block holds one molecule with its values, some of them ahead of it.

Experiments:
[1] = system: SW480; assay: Cytotoxicity against human SW480 cells assessed as inhibition of cell viability by MTT assay; format: functional
[2] = system: HT-29; assay: Cytotoxicity against human HT-29 cells assessed as inhibition of cell viability by MTT assay; format: functional
[3] = system: HT-29; assay: Antiproliferative activity against human HT-29 cells incubated for 48 hrs by CCK-8 method; format: functional, cell-based; settings: HT-29, 48 h
[4] = system: SW-620; assay: Antiproliferative activity against human SW620 cells incubated for 48 hrs by CCK-8 method; format: functional, cell-based; settings: SW-620, 48 h
[5] = molecular target: P2X purinoceptor 7 (Homo sapiens, UniProt Q99572); assay: Antagonist activity at P2X7R (unknown origin)
Sequence of P2X purinoceptor 7 (Q99572 whole entry): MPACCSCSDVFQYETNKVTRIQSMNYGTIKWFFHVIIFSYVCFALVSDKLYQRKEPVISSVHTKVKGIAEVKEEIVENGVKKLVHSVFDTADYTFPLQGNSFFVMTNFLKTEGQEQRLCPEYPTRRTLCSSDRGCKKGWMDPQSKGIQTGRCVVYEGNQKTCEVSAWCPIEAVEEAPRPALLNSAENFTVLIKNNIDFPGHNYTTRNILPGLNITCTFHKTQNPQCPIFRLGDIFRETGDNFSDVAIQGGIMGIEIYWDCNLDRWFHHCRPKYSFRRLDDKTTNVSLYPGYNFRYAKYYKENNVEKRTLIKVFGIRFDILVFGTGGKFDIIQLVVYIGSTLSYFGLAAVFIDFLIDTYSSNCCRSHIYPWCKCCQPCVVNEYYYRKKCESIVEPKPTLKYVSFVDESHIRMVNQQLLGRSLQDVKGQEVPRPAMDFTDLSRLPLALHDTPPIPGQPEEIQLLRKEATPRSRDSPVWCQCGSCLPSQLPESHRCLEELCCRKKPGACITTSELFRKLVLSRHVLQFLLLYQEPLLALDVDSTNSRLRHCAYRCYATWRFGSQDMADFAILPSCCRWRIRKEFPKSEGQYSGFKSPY

[6] = system: SW-620; assay: Antiproliferative activity against human SW620 cells incubated for 72 hrs by CCK-8 method; format: functional
[7] = system: HCT-116; assay: Antiproliferative activity against human HCT-116 cells incubated for 72 hrs by CCK-8 method; format: functional
[8] = system: SW-620; assay: Antiproliferative activity against human SW620 cells assessed as inhibition of cell growth by CellTiter 96 Aqueous One Solution Cell Proliferation Assay; format: functional, cell-based
[9] = system: LoVo; assay: Antiproliferative activity against human LoVo cells assessed as inhibition of cell growth by CellTiter 96 Aqueous One Solution Cell Proliferation Assay; format: functional, cell-based
[10] = system: SW480; assay: Antiproliferative activity against human SW480 cells assessed as inhibition of cell growth by CellTiter 96 Aqueous One Solution Cell Proliferation Assay; format: functional, cell-based
[11] = system: HCT-116; assay: Cytotoxicity against human HCT-116 cells measured after 72 hrs by WST-1 assay; format: functional, cell-based; settings: HCT-116, 72 h
[12] = molecular target: T1, Signal transducer and activator of transcription 3 (Homo sapiens, UniProt P40763); assay: Inhibition of STAT3 (unknown origin)
T1 sequence (P40763 whole entry): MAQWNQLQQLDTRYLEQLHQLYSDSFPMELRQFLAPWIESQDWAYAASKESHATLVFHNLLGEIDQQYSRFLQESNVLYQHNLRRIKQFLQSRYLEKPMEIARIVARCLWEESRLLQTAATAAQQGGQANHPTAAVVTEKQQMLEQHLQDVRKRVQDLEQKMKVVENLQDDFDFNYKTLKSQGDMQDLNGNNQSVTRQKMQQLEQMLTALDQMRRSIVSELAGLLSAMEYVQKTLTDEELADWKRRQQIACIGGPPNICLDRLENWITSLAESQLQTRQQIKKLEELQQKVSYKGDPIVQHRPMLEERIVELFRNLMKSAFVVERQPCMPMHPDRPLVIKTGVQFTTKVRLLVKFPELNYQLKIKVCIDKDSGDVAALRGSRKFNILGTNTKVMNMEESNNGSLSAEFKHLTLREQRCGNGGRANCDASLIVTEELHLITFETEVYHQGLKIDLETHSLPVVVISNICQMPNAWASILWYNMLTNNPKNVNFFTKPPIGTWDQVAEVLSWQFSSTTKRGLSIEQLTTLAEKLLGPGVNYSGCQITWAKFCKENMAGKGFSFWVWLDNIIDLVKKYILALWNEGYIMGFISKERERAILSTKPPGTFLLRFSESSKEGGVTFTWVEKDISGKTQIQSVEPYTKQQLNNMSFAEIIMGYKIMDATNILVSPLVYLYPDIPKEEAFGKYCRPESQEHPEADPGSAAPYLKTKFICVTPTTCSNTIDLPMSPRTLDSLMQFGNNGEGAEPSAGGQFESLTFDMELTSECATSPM

[13] = system: HT-29; assay: Cytotoxicity against human HT-29 cells assessed as reduction in cell viability by MTT assay; format: functional
[14] = system: HCT-116; assay: Cytotoxicity against human HCT-116 cells assessed as reduction in cell viability by MTT assay; format: functional
[15] = system: SW480; assay: Cytotoxicity against human SW480 cells assessed as reduction in cell viability by MTT assay; format: functional
[16] = system: RKO; assay: Cytotoxicity against human RKO cells assessed as reduction in cell viability by MTT assay; format: functional
[17] = molecular target: T1, Signal transducer and activator of transcription 3; assay: Binding affinity to GFP tagged STAT3 (unknown origin) assessed as dissociation constant by microscale thermophoresis analysis
[18] = molecular target: Phospholipase D2 (Homo sapiens, UniProt O14939); assay: Inhibition of PLD2 (unknown origin)
Sequence of Phospholipase D2 (O14939 whole entry): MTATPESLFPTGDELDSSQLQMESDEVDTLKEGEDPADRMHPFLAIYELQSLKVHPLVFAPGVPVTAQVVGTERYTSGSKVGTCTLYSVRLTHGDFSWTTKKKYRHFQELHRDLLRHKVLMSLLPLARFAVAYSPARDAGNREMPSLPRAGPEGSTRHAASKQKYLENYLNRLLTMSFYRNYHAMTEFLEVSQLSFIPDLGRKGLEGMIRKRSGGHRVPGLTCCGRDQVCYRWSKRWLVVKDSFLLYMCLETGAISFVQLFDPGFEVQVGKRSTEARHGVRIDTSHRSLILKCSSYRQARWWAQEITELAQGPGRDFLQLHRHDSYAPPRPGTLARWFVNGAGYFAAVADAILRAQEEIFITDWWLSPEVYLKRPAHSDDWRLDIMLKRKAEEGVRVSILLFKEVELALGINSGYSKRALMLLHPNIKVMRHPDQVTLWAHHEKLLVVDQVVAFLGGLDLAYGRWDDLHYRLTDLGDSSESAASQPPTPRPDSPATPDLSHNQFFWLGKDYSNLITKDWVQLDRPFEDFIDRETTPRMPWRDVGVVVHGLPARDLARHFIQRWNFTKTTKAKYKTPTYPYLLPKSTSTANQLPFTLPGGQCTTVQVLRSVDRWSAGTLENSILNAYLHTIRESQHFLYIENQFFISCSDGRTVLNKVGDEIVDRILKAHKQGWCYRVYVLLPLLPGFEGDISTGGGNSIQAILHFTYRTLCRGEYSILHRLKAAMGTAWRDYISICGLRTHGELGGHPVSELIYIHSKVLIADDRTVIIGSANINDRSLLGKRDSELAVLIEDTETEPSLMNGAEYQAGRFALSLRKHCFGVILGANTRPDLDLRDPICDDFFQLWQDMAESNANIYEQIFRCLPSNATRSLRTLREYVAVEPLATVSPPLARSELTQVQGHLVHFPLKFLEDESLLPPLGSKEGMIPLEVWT

[19] = molecular target: Phospholipase D1 (Homo sapiens, UniProt Q13393); assay: Inhibition of PLD1 (unknown origin)
Sequence of Phospholipase D1 (Q13393 whole entry): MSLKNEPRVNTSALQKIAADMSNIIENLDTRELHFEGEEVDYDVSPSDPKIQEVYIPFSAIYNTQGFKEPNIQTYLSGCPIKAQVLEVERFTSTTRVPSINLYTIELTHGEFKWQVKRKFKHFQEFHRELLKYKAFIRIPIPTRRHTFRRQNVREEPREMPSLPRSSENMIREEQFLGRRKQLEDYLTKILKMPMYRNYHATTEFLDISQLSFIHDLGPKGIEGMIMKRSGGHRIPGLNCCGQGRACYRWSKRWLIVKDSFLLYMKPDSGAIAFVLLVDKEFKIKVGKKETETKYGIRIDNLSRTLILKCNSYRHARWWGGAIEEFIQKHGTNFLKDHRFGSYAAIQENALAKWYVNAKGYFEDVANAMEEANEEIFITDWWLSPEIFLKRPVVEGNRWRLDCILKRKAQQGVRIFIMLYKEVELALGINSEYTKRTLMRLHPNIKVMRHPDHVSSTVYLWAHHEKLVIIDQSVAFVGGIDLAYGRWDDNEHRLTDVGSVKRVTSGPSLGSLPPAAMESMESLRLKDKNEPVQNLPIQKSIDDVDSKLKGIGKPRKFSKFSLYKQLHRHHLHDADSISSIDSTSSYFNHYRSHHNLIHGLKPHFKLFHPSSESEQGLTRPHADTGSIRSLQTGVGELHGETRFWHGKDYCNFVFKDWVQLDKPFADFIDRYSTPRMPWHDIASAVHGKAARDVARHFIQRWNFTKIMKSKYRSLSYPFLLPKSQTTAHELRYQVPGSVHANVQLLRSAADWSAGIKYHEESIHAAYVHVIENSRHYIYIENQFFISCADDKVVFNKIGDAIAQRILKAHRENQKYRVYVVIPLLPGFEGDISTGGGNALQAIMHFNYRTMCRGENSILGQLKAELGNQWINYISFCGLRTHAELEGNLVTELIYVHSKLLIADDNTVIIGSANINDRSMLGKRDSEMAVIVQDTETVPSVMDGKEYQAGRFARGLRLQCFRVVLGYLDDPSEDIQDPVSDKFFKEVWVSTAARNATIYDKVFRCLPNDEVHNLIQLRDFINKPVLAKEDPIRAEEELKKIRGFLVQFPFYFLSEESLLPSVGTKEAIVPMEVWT

[20] = system: DLD-1; assay: Cytotoxicity against human DLD-1 cells; format: functional
[21] = molecular target: T1, Signal transducer and activator of transcription 3; assay: Binding affinity to N-terminal his tagged recombinant human STAT3 expressed in insect cells assessed as dissociation constant by biolayer interferometry assay; set-up: species or system Insect cell
[22] = system: HCT-116; assay: Cytotoxicity against human HCT-116 cells assessed as inhibition of cell proliferation measured after 24 hrs by MTT assay; format: functional, cell-based; settings: HCT-116, 24 h
[23] = system: RKO; assay: Cytotoxicity against human RKO cells assessed as inhibition of cell proliferation measured after 24 hrs by MTT assay; format: functional, cell-based
[24] = system: RKO; assay: Antiproliferative activity against human RKO cells assessed as inhibition of cell growth; format: functional, cell-based
[25] = system: HCT-116; assay: Antiproliferative activity against human HCT-116 cells assessed as inhibition of cell viability by CellTiter-Glo Luminescent Assay; format: functional
[26] = system: SW-620; assay: Antiproliferative activity against human SW-620 cells assessed as inhibition of cell viability by CellTiter-Glo Luminescent Assay; format: functional
[27] = system: HT-29; assay: Antiproliferative activity against human HT-29 cells assessed as inhibition of cell viability by CellTiter-Glo Luminescent Assay; format: functional
[28] = system: LoVo; assay: Antiproliferative activity against human LoVo cells assessed as inhibition of cell viability by CellTiter-Glo Luminescent Assay; format: functional
[29] = system: DLD-1; assay: Antiproliferative activity against human DLD-1 cells assessed as inhibition of cell viability by CellTiter-Glo Luminescent Assay; format: functional
[30] = system: SW480; assay: Antiproliferative activity against human SW480 cells assessed as reduction in cell viability; format: functional
[31] = system: SW-620; assay: Antiproliferative activity against human SW620 cells assessed as reduction in cell viability; format: functional
[32] = system: RKO; assay: Antiproliferative activity against human RKO cells assessed as inhibition of cell viability measured upto 96 hrs by CCK-8 method; format: functional
[33] = system: RKO; assay: Cytotoxicity against human RKO cells measured after 72 hrs; format: functional, cell-based
[34] = system: SW48; assay: Cytotoxicity against human SW48 cells measured after 72 hrs; format: functional, cell-based; settings: SW48, 72 h
[35] = system: HCT-116; assay: Cytotoxicity against p53 null human HCT-116 cells measured after 72 hrs; format: functional, cell-based; settings: HCT-116, 72 h
[36] = system: HT-29; assay: Cytotoxicity against human HT-29 cells measured after 72 hrs; format: functional, cell-based; settings: HT-29, 72 h
[37] = system: HCT-116; assay: Cytotoxicity against human HCT-116 cells measured after 72 hrs; format: functional, cell-based; settings: HCT-116, 72 h
[38] = system: HT-29; assay: Antiproliferative activity against human HT-29 cells assessed as inhibition of cell growth incubated for 24 hrs by cell-titer glo assay; format: functional
[39] = system: MC-38; assay: Antiproliferative activity against mouse MC38 cells assessed as inhibition of cell growth incubated for 24 hrs by cell-titer glo assay; format: functional
[40] = system: HCT-116; assay: Antiproliferative activity against human HCT-116 cells assessed as inhibition of cell growth incubated for 24 hrs by cell-titer glo assay; format: functional
[41] = system: SW-620; assay: Cytotoxicity against human SW620 cells; format: functional, cell-based
[42] = system: HT-29; assay: Antiproliferative activity against human HT-29 cells; format: functional
[43] = system: HCT-116; assay: Cytotoxicity against human HCT-116 cells; format: functional, cell-based
[44] = Inhibition of NEMO/IKKbeta (unknown origin); set-up: species or system Homo sapiens
[45] = system: RKO; assay: Antiproliferative activity against human RKO cells by CCK-8 method; format: functional
[46] = system: HCT-15; assay: Antiproliferative activity against human HCT-15 cells by CCK-8 method; format: functional
[47] = system: HCT-116; assay: Antiproliferative activity against human HCT-116 cells by CCK-8 method; format: functional
[48] = system: LoVo; assay: Antiproliferative activity against human LoVo cells by CCK-8 method; format: functional
[49] = system: SW-620; assay: Antiproliferative activity against human SW620 cells by CCK-8 method; format: functional
[50] = system: SW-620; assay: Antiproliferative activity against human SW620 cells assessed as reduction in cell viability measured after 24 hrs by CCK-8 method; format: functional, cell-based; settings: SW-620, 24 h
[51] = system: HCT-116; assay: Antiproliferative activity against human HCT-116 cells assessed as reduction in cell viability measured after 24 hrs by CCK-8 method; format: functional, cell-based; settings: HCT-116, 24 h
[52] = system: HT-29; assay: Cytotoxicity against human HT-29 cells incubated for 24 hrs by MTT assay; format: functional, cell-based; settings: HT-29, 24 h
[53] = system: HCT-116; assay: Cytotoxicity against human HCT-116 cells incubated for 24 hrs by MTT assay; format: functional, cell-based; settings: HCT-116, 24 h
[54] = system: HCT-116; assay: Antiproliferative activity in human HCT-116 cells measured after 12 to 24 hrs by MTT assay; format: functional, cell-based
[55] = system: SW-620; assay: Antiproliferative activity in human SW620 cells measured after 12 to 24 hrs by MTT assay; format: functional, cell-based

SMILES: CC[C@@]1(O)C(=O)OCc2c1cc1n(c2=O)Cc2cc3cc4c(cc3nc2-1)OCO4
IC [1]: 0 nM | IC [2]: 0 nM

IC50 [3]: 13.8 µM | IC50 [4]: 7.6 µM
SMILES: CC(C)c1onc(-c2c(Cl)cccc2Cl)c1COc1ccc(/C=C/c2cccc(C(=O)O)c2)c(Cl)c1

IC50 [5]: 130 nM
SMILES: Clc1cccc(-c2nnnn2Cc2cccnc2)c1Cl
IC [6]: 10 µM | IC [7]: 10 µM

IC50 [8]: 7.33 µM | IC50 [9]: 7.05 µM | IC50 [10]: 6.97 µM
SMILES: CC(C)=CCc1cc(-c2coc3cc(O)c(CC=C(C)C)c(O)c3c2=O)cc(O)c1O

SMILES: COC(=O)[C@@]12OC[C@]34[C@H]([C@@H](O)[C@@H]1O)[C@@]1(C)CC(=O)C(O)=C(C)[C@@H]1C[C@H]3OC(=O)[C@H](OC(=O)/C=C(\C)C(C)(C)OC(C)=O)[C@@H]24
IC50 [11]: 18.7 µM | IC50 [12]: 2.4 pM

Kd [17]: 3.3 µM
SMILES: O=C1C(Nc2ccccc2N2CCNCC2)=CC2=NS(=O)(=O)c3cccc1c32
IC [13]: 3 µM | IC [14]: 3 µM | IC [15]: 3 µM | IC [16]: 3 µM

SMILES: CC(=O)c1ccc2[nH]c(C(=O)Nc3cc(C(F)(F)F)cc(C(F)(F)F)c3)cc2c1
IC50 [18]: 15.1 nM | IC50 [19]: 325 nM | IC [20]: 1 µM

Kd [21]: 6.6 µM
SMILES: Cc1ccc(COc2ccc3c(c2)C(=O)C(=O)C2=C3OC(C)C2)cc1 (stereo not given)
IC50 [22]: 4.07 µM | IC50 [23]: 3.78 µM

SMILES: COc1cc(-c2[o+]c3cc(O)cc(O[C@@H]4O[C@H](CO)[C@@H](O)[C@H](O)[C@H]4O)c3cc2O[C@@H]2O[C@H](CO[C@@H]3O[C@@H](C)[C@H](OC(=O)/C=C/c4ccc(O)cc4)C[C@H]3O)[C@@H](O)[C@H](O)[C@H]2O)cc(O)c1O
IC50 [24]: 172 µM

SMILES: C[C@@H]1CN(CC(=O)N2CC(C)(C)c3nc(CO)c(Cc4ccc(F)cc4)cc32)[C@@H](CN2CCOC[C@H]2C)CN1 [ASTX-660]
IC [25]: 0.5 nM | IC [26]: 0.5 nM | IC [27]: 0.5 nM | IC [28]: 0.5 nM | IC [29]: 0.5 nM

SMILES: C[C@H]1O[C@@H](O[C@H]2[C@@H](O)C[C@H](O[C@H]3[C@@H](O)C[C@H](O[C@H]4CC[C@@]5(C)[C@H](CC[C@@H]6[C@@H]5CC[C@]5(C)[C@@H](C7=CC(=O)OC7)CC[C@]65O)C4)O[C@@H]3C)O[C@@H]2C)C[C@H](O)[C@@H]1O [DIGITOXIN]
IC [30]: 200 nM | IC [31]: 200 nM

SMILES: CCN(CC)C(=S)SSC(=S)N(CC)CC [DISULFIRAM]
IC [32]: 0.1 µM

SMILES: O=C(O)CCCCC1CCSS1 (stereo not drawn) [LIPOIC ACID, ALPHA]
IC50 [33]: 266 µM | IC50 [34]: 266 µM | IC50 [35]: 890 µM | IC50 [36]: 266 µM | IC50 [37]: 266 µM

SMILES: O=C(NC1CCN(CCCCC2(C(=O)NCC(F)(F)F)c3ccccc3-c3ccccc32)CC1)c1ccccc1-c1ccc(C(F)(F)F)cc1 [LOMITAPIDE]
IC [38]: 10 µM | IC [39]: 10 µM | IC [40]: 10 µM

SMILES: CC(C)[C@@H]1C[C@@H](O)[C@H]2[C@@]1(C)CC[C@@]1(C)[C@H]3C(=CC[C@]21C)[C@@]1(C)CC[C@H](O)C(C)(C)[C@@H]1C[C@@H]3O [RUBIARBONOL B]
IC [41]: 10 µM | IC [42]: 10 µM | IC [43]: 10 µM

IC50 [44]: 170 nM
SMILES: CC(C)=CC[C@@H](O)C1=CC(=O)c2c(O)ccc(O)c2C1=O [SHIKONIN]
IC [45]: 0.5 µM | IC [46]: 0.5 µM | IC [47]: 0.5 µM | IC [48]: 0.5 µM | IC [49]: 0.5 µM

IC50 [50]: 5.82 µM | IC50 [51]: 9.23 µM
SMILES: CCC(C)/C=C(\C)[C@H]1C(C)=C[C@@]2(C)C[C@@H](C)CC[C@@H]2[C@H]1C(=O)C1=C/C(=C/c2ccc(O)cc2)NC1=O (stereo not given in full) [TALAROCONVOLUTIN A]

IC50 [54]: 316 µM | IC50 [55]: 355 µM
SMILES: C=C[C@@]12COC(=O)C(=C)[C@@H]1[C@H]1OC(=O)C(=C)[C@@H]1[C@@H](OC(=O)C(=C)CO)C2 [VERNODALIN]
IC50 [52]: 7.17 µM | IC50 [53]: 3.17 µM
